Test results as given in patent publication US6410561B1, “Amide derivatives and nociceptin antagonists” (Japan Tobacco Inc., priority 1998, dated 2002).
Counter-ions that a name gives are not always drawn. Like-named read-outs stand apart in the source and are kept apart here. One block for each compound: values may come before it.

Experiments:
ORL-1 receptor = molecular target: T1, ORL-1 receptor (Homo sapiens, UniProt P41146); assay: ORL1 receptor binding assay ([3H]nociceptin); conditions: for Ki: calculated from IC50 and Kd of [3H]nociceptin; for IC50: membrane of human ORL-1 expression cells, [3H]nociceptin 0.5 nM
T1 construct: expressed in transfected cells
T1 sequence (P41146 whole entry): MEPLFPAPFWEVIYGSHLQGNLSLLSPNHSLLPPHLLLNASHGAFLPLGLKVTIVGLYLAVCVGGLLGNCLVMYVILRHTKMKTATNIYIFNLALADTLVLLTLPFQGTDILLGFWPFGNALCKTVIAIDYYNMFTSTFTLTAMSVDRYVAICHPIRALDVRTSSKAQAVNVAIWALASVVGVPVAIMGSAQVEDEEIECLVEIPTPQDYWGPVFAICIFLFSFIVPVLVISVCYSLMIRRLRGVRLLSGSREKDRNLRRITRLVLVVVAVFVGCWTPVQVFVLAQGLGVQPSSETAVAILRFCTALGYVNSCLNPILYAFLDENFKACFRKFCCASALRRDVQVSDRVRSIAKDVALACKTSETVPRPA
Protocol: ORL1 Receptor Binding Assay
A cell membrane suspension obtained from human ORL-1 expression cells was adjusted with Tris buffer [50 mM Tris, 2 mM EDTA, 0.1 mM (p-Amidinophenyl)methanesulfonyl Fluoride Hydrochloride (p-APMSF), 2 mg/ml BSA] to membrane protein amount of about 25 μg/ml (2.5 μg/well). This was mixed with [^3H]nociceptin (diluted with Tris buffer to a final concentration of 0.5 nM) and test compound (diluted with Tris buffer to a final concentration of 10 nM-10 μM), and the mixture was incubated at room temperature for 60 min. The membrane was recovered on a G/F-B filter (Packard, Unifilter 96GF/B) using a cell harvester and the reaction was stopped. After washing 3 times, the filter was dried at 42° C. for 1 hr. A scintillation solution (Packard, microscint-20) was added and the radioactivity (Packard, Top count A9912V) was assayed.
(§1) The nonspecific binding was the binding in the presence of 1 μM nociceptin and the difference between the total binding and nonspecific binding was taken as the specific binding. IC50 was calculated from inhibition of specific binding at each concentration of the compound, and Ki value of the test compound was calculated from this value and Kd value of [^3H]nociceptin.

allodynia model = assay: Allodynia test (intrathecal nociceptin, tactile stimulation); format: in vivo, Mice; conditions: Mus musculus, read-out: Allodynia M.E.D. (minimum effective dose)
Protocol: Mice (Crj, ICR, 4-week-old, male) were intrathecally administered with nociceptin (50 pg/5 μl) without anesthesia. For 20 min after administration and at 5 min intervals, an area from lateral region to tail of the mice was rubbed with a brush and the response of the mice was observed. The evaluation followed the criteria of 0; no change, 1; run or cry upon tactile stimulation, and 2; cry loud or dash away upon tactile stimulation. The test compound was suspended in a 0.5% MC solution and orally administered 60 min before nociceptin administration. The significant difference of the score of each administration group at 20 min after nociceptin administration from the group administered with solvent was analyzed with Mann-Whitny U-test.

μ receptor = molecular target: T2, μ receptor (Rattus norvegicus, UniProt P33535); assay: μ receptor binding assay ([3H]DAMGO); conditions: for Ki: calculated from IC50 and Kd of [3H]DAMGO; for IC50: rat cerebrum membrane, [3H]DAMGO 1 nM
T2 construct: Rat cerebrum membrane standard sample; from tissue; host or cells: rat cerebrum membranes
T2 sequence (P33535 whole entry): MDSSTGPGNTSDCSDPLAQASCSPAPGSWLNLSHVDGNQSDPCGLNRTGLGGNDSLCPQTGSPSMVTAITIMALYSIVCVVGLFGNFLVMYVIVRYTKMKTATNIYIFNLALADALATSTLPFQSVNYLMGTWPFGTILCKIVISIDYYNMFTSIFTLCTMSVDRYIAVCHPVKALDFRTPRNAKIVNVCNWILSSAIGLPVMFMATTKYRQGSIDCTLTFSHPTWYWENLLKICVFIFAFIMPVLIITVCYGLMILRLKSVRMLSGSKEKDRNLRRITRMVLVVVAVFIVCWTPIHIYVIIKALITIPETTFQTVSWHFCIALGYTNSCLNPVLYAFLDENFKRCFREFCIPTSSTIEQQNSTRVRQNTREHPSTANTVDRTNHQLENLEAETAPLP
Protocol: Rat cerebrum membrane standard sample (final concentration 0.755 mg·protein/ml), [^3H]DAMGO (Try-D-Ala-Gly-NMe-Phe-Gly-ol) [diluted with Tris buffer (50 mM Tris-HCl, 0.1 mM p-APMSF, 2 mg/ml BSA (pH=7.4)) to a final concentration of 1 nM] and test compound (diluted with Tris buffer to a final concentration of 10 nM-10 μM) were mixed, and the mixture was incubated at room temperature for 90 min. The membrane was recovered on a G/F-B filter (same as above) using a cell harvester and the reaction was stopped. After washing 3 times, the filter was dried at 42° C. for 1 hr. A scintillation solution (same as above) was added and the radioactivity (same as above) was assayed.
as §1, with “10” for “1”, “naloxone” for “nociceptin”, “[^3H]DAMGO.” for “[^3H]nociceptin.”

[1] = mice, oral, 60 min before nociceptin 50 pg i.t., score at 20 min

melting point: 244 °C
SMILES: COCc1ccccc1C(=O)Nc1ccc2nc(C)cc(N)c2c1.Cl

melting point: 195 °C
SMILES: Cc1cc(N)c2cc(NC(=O)c3ccccc3COc3cccc(C#N)c3)ccc2n1.Cl

melting point: 191 °C
SMILES: CSc1nc2ccc(NC(=O)c3ccccc3COc3ccccc3)cc2[nH]1.Cl

melting point: 258 °C
SMILES: CC(=O)OCc1ccc(OCc2ccccc2C(=O)Nc2ccc3nc(C)cc(N)c3c2)cc1.Cl

melting point: 256 °C
SMILES: Cc1cc(N)c2cc(NC(=O)c3ccccc3COc3ccc(C(C)C)cc3)ccc2n1.Cl

Ki (ORL-1 receptor): 125 nM
IC50 (ORL-1 receptor): 2360 nM
Ki (μ receptor): 783 nM
IC50 (μ receptor): 2000 nM
SMILES: Cc1cc(N)c2cc(NC(=O)c3ccccc3CCOc3ccccc3)ccc2n1.Cl [Example 62]
minimal effective dose (allodynia model; [1]): > 3 mg/kg

melting point: 219 °C
SMILES: CCc1ccc(OCc2ccccc2C(=O)Nc2ccc3nccc(N)c3c2)cc1.Cl

melting point: 253 °C
SMILES: Cc1cc(N)c2cc(NC(=O)[C@H]3CCCN3CCOc3ccc(Cl)cc3)ccc2n1 [Example 115]

melting point: 233 °C
SMILES: Cc1cc(N)c2cc(NC(=O)c3ccccc3COc3ccc(N(C)C)cc3)ccc2n1 (as salt: hydrochloride)

melting point: 211 °C
SMILES: Cc1cc(N)c2cc(NC(=O)[C@@H]3CCCN3CCCOc3ccc(Cl)cc3)ccc2n1 [Example 114]

melting point: 283 °C
SMILES: Cl.Nc1c2c(nc3ccc(NC(=O)c4ccccc4COc4ccc(Cl)cc4)cc13)CCCC2

melting point: 233 °C
SMILES: Cc1cc(N)c2cc(NC(=O)c3ccccc3CCCCc3ccccc3)ccc2n1.Cl

Ki (ORL-1 receptor): 5 nM
IC50 (ORL-1 receptor): 90 nM
Ki (μ receptor): 1020 nM
IC50 (μ receptor): 2670 nM
SMILES: Cc1cc(N)c2cc(NC(=O)c3ccccc3COc3ccc(I)cc3)ccc2n1 [Example 38, N-(4-amino-2-methyl-6-quinolyl)-2-[(4-iodophenoxy)methyl]benzamide]
minimal effective dose (allodynia model; [1]): > 0.3 mg/kg

melting point: 216 °C
SMILES: Cc1cc(N)c2cc(NC(=O)c3ccccc3CSc3ccc(Cl)cc3)ccc2n1.Cl

melting point: 219 °C
SMILES: Cc1cc(N)c2cc(NC(=O)c3sccc3COc3ccc(Cl)cc3)ccc2n1.Cl

melting point: 253 °C
SMILES: Cc1cc(N)c2cc(NC(=O)c3ccccc3COc3cccc(C(F)(F)F)c3)ccc2n1.Cl

melting point: 231 °C
SMILES: Cl.Nc1ccnc2ccc(NC(=O)c3ccccc3COc3ccc(Cl)cc3)cc12

Ki (ORL-1 receptor): 8 nM
IC50 (ORL-1 receptor): 170 nM
Ki (μ receptor): 525 nM
IC50 (μ receptor): 1400 nM
SMILES: CCc1cc(N)c2cc(NC(=O)c3ccccc3COc3ccc(Cl)cc3Cl)ccc2n1 [Example 51]

Second part, the compound before the results:

SMILES: Cc1cc(N)c2cc(NC(=O)c3ccccc3CN(C(=O)OC(C)(C)C)c3ccc(Cl)cc3)ccc2n1.Cl
melting point: 208 °C

SMILES: Cc1cc(N)c2cc(NC(=O)c3ccccc3CCCCCCCOc3ccccc3)ccc2n1.Cl [Example 65]
Ki (ORL-1 receptor): 64 nM
IC50 (ORL-1 receptor): 1160 nM
minimal effective dose (allodynia model; [1]): > 3 mg/kg

SMILES: Cc1cc(N)c2cc(NC(=O)c3ccccc3COc3ccc(-c4ccccc4)cc3)ccc2n1.Cl
melting point: 268 °C

SMILES: Cc1cc(N)c2cc(NC(=O)c3ccccc3COc3ccc(N)cc3)ccc2n1 (as salt: hydrochloride) [Example 23, N-(4-amino-2-methyl-6-quinolyl)-2-[(4-aminophenoxy)methyl]benzamide dihydrochloride]
melting point: 237 °C

SMILES: Cc1cc(N)c2cc(NC(=O)c3ccccc3OCc3ccccc3)ccc2n1.Cl
melting point: 240 °C

SMILES: Cc1cc(N)c2cc(NC(=O)c3cccc(CCc4ccccc4)c3)ccc2n1.Cl
melting point: > 300 °C

SMILES: COc1cc(OC)cc(OCc2ccccc2C(=O)Nc2ccc3nc(C)cc(N)c3c2)c1.Cl [Example 10, N-(4-amino-2-methyl-6-quinolyl)-2-[(3,5-dimethoxyphenoxy)methyl]benzamide hydrochloride]
Ki (ORL-1 receptor): 53 nM
IC50 (ORL-1 receptor): 1020 nM
Ki (μ receptor): 324 nM
IC50 (μ receptor): 860 nM
minimal effective dose (allodynia model; [1]): 3 mg/kg

SMILES: Cc1cc(N)c2cc(NC(=O)c3ccccc3CCc3ccccc3)ccc2n1 [Example 71]
Ki (ORL-1 receptor): 89 nM
IC50 (ORL-1 receptor): 1770 nM
minimal effective dose (allodynia model; [1]): 30 mg/kg

SMILES: COC(=O)c1ccc(OCc2ccccc2C(=O)Nc2ccc3nc(C)cc(N)c3c2)cc1.Cl
melting point: 262 °C

SMILES: Cl.Nc1ccc(NC(=O)c2ccccc2COc2ccccc2)cc1
melting point: 241 °C

SMILES: Cc1cc(N)c2cc(NC(=O)c3ccccc3CNc3ccc(Cl)cc3)ccc2n1 [Example 102]
melting point: 274 °C

SMILES: Cc1cc(N)c2cc(NC(=O)c3ccccc3CN(C)c3ccc(Cl)cc3)ccc2n1 [Example 101]
melting point: 214 °C

SMILES: Cc1cc(N)c2cc(NC(=O)c3ccccc3COc3ccc4occc4c3)ccc2n1.Cl
melting point: 269 °C

SMILES: Cc1ccc(OCc2ccccc2C(=O)Nc2ccc3nc(CO)cc(N)c3c2)cc1.Cl
melting point: 201 °C

SMILES: Cc1cc(N)c2cc(NC(=O)c3ccccc3COc3ccc4c(c3)CCO4)ccc2n1.Cl [Example 93]
Ki (ORL-1 receptor): 7 nM
IC50 (ORL-1 receptor): 120 nM
minimal effective dose (allodynia model; [1]): > 0.3 mg/kg
melting point: 233 °C

SMILES: Cc1cc(N)c2cc(NC(=O)c3ccccc3COc3ccc(CO)cc3)ccc2n1.Cl
melting point: 273 °C

SMILES: Cc1cc(N)c2cc(NC(=O)c3ccccc3C[S+]([O-])c3ccc(Cl)cc3)ccc2n1.Cl (stereo not shown)
melting point: 221 °C

SMILES: COc1cccc(OCc2ccccc2C(=O)Nc2ccc3nc(C)cc(N)c3c2)c1.Cl
melting point: 224 °C

SMILES: Cc1cc(N)c2cc(NC(=O)c3ccccc3COc3ccc4c(c3)CCCC4)ccc2n1.Cl
melting point: 176 °C

SMILES: Cc1cc(N)c2cc(NC(=O)c3ccccc3COc3ccc(F)cc3)ccc2n1.Cl [Example 25, N-(4-amino-2-methyl-6-quinolyl)-2-[(4-fluorophenoxy)methyl]benzamide hydrochloride]
Ki (ORL-1 receptor): 8 nM
IC50 (ORL-1 receptor): 150 nM
Ki (μ receptor): 464 nM
IC50 (μ receptor): 1180 nM
minimal effective dose (allodynia model; [1]): > 0.3 mg/kg

SMILES: Cc1cc(N)c2cc(NC(=O)c3ccccc3COc3cccnc3)ccc2n1.Cl
melting point: 207 °C

SMILES: Cc1cc(N)c2cc(NC(=O)c3ccccc3COc3ccccc3Cl)ccc2n1.Cl [Example 27, N-(4-amino-2-methyl-6-quinolyl)-2-[(2-chlorophenoxy)methyl]benzamide hydrochloride]
Ki (μ receptor): 414 nM
IC50 (μ receptor): 1060 nM
minimal effective dose (allodynia model; po): 0.3 mg/kg
melting point: 165 °C

SMILES: COc1ccc(OCc2ccccc2C(=O)Nc2ccc3nc(C)cc(N)c3c2)cc1OC.Cl
melting point: 270 °C

SMILES: CNc1cc(C)nc2ccc(NC(=O)c3ccccc3COc3ccccc3)cc12.Cl
melting point: 284 °C

SMILES: Cc1cc(N)c2cc(NC(=O)c3ccccc3CCCCOc3ccccc3)ccc2n1.Cl [Example 63]
Ki (ORL-1 receptor): 54 nM
IC50 (ORL-1 receptor): 1030 nM
Ki (μ receptor): 545 nM
IC50 (μ receptor): 1420 nM
minimal effective dose (allodynia model; [1]): > 3 mg/kg

SMILES: Cc1cc(N)c2cc(NC(=O)c3ccccc3COc3ccc(C(=O)O)cc3)ccc2n1.Cl
melting point: 225 °C

SMILES: Cc1ccc(CCc2ccccc2C(=O)Nc2ccc3nc(C)cc(N)c3c2)cc1.Cl
melting point: > 300 °C

SMILES: Cc1cc(N)c2cc(NC(=O)c3ccccc3CCCOc3ccccc3)ccc2n1.Cl [Example 61]
Ki (ORL-1 receptor): 63 nM
IC50 (ORL-1 receptor): 1220 nM
Ki (μ receptor): 2010 nM
IC50 (μ receptor): 5350 nM
minimal effective dose (allodynia model; [1]): 3 mg/kg

SMILES: Cl.Nc1cccc2ccc(NC(=O)c3ccccc3COc3ccccc3)cc12
melting point: 237 °C

SMILES: Cc1cc(N)c2cc(NC(=O)[C@@H]3CCCN3CCOc3ccc(Cl)cc3)ccc2n1 [Example 113]
melting point: 216 °C

SMILES: Cc1cc(N)c2cc(NC(=O)c3ccccc3COc3ccc([N+](=O)[O-])cc3)ccc2n1.Cl [Example 32, N-(4-amino-2-methyl-6-quinolyl)-2-[(4-nitrophenoxy)methyl]benzamide hydrochloride]
Ki (μ receptor): 227 nM
IC50 (μ receptor): 580 nM
minimal effective dose (allodynia model; po): > 0.3 mg/kg
melting point: 238 °C

SMILES: Cc1cc(N)c2cc(NC(=O)c3ccccc3CCCCCCc3ccccc3)ccc2n1.Cl
melting point: 213 °C

SMILES: Cc1cc(N)c2cc(NC(=O)c3ccccc3COc3cccc(F)c3)ccc2n1.Cl
melting point: 255 °C
